The text below walks through data of US12139498B1, “Positive allosteric modulators of the muscarinic acetylcholine receptor M4” (Vanderbilt University, priority 2023, dated 2024).

Data set [1] is described as follows: Fraction unbound in cyno plasma. To be noted: cynomolgus monkey, read-out: Cyno Fu (plasma). It is filed as in vitro ADME. How it is done: (§1) Compound 70 was tested in several in in vitro assays to investigate both metabolism and pharmacokinetics. These assays may be performed according to known methods as generally described in the following references: Conde-Ceide et al. ACS Med. Chem. Lett. 2015, 6, 716-720; Morris et al. J. Med. Chem. 2014, 57, 10192-10197; and Bubser et al. ACS Chem. Neurosci. 2014, 5, 920-942.

The nature of data set [2]: Cyno intrinsic clearance. Particulars: cynomolgus monkey. The data set is classed as in vitro ADME. How it is done:
as §1

Data set [3] deals with P450 3A4 (Homo sapiens, UniProt P08684). The data set can be described thus: P450 3A4 inhibition. It is filed as in vitro ADME. How it is done: as §1
Chain of P450 3A4 (P08684 whole entry): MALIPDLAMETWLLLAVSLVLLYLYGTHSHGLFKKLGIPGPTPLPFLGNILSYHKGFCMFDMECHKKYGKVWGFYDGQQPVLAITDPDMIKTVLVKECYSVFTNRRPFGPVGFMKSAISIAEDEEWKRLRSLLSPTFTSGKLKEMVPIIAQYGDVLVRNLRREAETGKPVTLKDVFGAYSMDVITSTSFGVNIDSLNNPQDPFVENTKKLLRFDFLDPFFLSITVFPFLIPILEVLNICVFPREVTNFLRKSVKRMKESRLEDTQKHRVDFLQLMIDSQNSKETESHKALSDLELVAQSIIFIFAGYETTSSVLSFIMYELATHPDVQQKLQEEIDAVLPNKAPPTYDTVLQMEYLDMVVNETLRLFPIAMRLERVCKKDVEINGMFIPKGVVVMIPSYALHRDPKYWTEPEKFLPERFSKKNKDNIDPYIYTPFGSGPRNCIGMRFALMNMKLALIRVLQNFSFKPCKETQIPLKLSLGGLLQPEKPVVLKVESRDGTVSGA
The nature of data set [4]: In vivo pharmacokinetics in rat. How it is done:
Compound 70 was tested in several in vivo assays and the pharmacokinetic parameters listed in the following table may be determined from pharmacokinetic studies in rat, dog, or cynomolgus monkey, according to known methods as generally described in the following references: Garrison et al. J. Med. Chem. 2022, 65, 6273-6286; Felts et al. J. Med. Chem 2017, 60, 5072-5085; and Yu et al. J. Med. Chem. 2021, 64, 4709-4729.

Data set [5] relates to 68 primary molecular targets. The data set can be described thus: Eurofins LeadProfilingScreen off-target panel (binding). To be noted: 10 μM (binding), all targets except human muscarinic 2. How it is done:
Compound 70 was tested using Eurofins LeadProfilingScreen®, which detects potential off-target activity and determines relative selectivity. The screen includes 68 primary molecular targets, including several CNS targets recommended by the EMEA (European Medicines Evaluation Agency) to evaluate drug dependence potential.

Data set [6] in a line: Fraction unbound in rat brain. Particulars: read-out: Rat Fu (brain). It is filed as in vitro ADME. How it is done:
as §1

The nature of data set [7]: Human intrinsic clearance. The data set is classed as in vitro ADME. How it is done: as §1
The target in data set [8] is P450 2C9 (Homo sapiens, UniProt P11712). The data set can be described thus: P450 2C9 inhibition. The data set is classed as in vitro ADME. How it is done:
as §1

Data set [9] deals with T1, P450 1A2 (Homo sapiens, UniProt P05177).
T1 sequence (P05177 1-516): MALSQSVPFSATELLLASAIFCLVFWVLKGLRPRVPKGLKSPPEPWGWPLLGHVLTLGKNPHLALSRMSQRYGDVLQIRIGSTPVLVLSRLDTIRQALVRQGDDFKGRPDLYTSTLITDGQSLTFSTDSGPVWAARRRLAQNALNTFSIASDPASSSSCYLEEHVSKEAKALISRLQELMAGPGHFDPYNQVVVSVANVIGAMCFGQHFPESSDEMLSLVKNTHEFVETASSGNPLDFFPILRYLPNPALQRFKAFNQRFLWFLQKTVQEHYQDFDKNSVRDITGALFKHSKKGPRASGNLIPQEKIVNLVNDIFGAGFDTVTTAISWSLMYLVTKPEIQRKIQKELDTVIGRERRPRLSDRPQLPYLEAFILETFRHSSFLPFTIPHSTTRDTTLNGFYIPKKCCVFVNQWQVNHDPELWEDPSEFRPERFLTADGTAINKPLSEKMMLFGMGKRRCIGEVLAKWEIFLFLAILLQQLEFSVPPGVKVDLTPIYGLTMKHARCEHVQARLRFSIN
The data set can be described thus: P450 1A2 inhibition. It is filed as in vitro ADME. How it is done: as §1

Data set [10] in a line: Fraction unbound in dog plasma. It is filed as in vitro ADME. To be noted: read-out: Dog Fu (plasma). How it is done: as §1
A short description of data set [11]: Rat intrinsic clearance. It is filed as in vitro ADME. How it is done:
as §1

In data set [12] the target is P450 2D6 (Homo sapiens, UniProt P10635). The data set can be described thus: P450 2D6 inhibition. It is filed as in vitro ADME. How it is done: as §1
Chain of P450 2D6 (P10635 whole entry): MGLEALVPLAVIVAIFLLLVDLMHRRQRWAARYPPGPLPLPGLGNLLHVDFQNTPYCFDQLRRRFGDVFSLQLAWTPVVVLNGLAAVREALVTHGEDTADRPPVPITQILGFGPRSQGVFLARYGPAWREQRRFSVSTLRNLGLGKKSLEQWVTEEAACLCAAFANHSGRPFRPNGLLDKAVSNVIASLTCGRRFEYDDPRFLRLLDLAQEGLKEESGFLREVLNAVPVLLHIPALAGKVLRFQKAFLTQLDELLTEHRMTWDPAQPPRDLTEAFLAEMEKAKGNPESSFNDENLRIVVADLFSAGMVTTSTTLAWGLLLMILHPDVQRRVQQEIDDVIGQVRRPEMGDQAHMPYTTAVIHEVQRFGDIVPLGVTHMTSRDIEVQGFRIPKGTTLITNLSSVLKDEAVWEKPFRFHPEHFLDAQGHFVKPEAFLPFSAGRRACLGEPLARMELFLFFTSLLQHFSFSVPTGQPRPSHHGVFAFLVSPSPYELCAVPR

Chain of P450 2C9 (P11712 whole entry): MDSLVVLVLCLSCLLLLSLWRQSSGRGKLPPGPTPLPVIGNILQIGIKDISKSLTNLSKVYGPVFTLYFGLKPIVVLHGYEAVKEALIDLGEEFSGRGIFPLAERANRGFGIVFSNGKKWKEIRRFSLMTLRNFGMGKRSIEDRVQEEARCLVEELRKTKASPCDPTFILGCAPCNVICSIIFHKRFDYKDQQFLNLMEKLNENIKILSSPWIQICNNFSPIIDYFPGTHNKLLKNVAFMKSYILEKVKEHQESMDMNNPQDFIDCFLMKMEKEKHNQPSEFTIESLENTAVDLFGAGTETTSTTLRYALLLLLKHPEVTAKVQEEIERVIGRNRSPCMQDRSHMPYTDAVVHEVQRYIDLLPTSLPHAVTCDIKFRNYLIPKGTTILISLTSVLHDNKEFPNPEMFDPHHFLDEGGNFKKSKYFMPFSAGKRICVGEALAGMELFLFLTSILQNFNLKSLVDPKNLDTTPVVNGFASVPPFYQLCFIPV

In general, CLint scaled refers to the rate of metabolic loss divided by the concentration. By IC50 is commonly meant the concentration needed to halve the response being measured. What is called Kp is the ratio of the level in a tissue or fluid to that in plasma or blood. In the case of `Cc1c(N2CCc3nc(C4(F)CC4)sc3C2)nc2nn(C)c(=O)n2c1C` [Compound 70, 7-(2-(1-fluorocyclopropyl)-6,7-dihydrothiazolo[5,4-c]pyridin-5(4H)-yl)-2,5,6-trimethyl-[1,2,4]triazolo[4,3-a]pyrimidin-3(2H)-one], the fraction unbound in data set [1] was 0.177; in [6] it was 0.06; in data set [10] it was 0.232. In addition, the intrinsic metabolic clearance (CLint scaled) in data set [2] was 24 mL/min/kg; in data set [7] it was 9 mL/min/kg; in data set [11] it was 36 mL/min/kg. Also, the IC50 in data set [3], in data set [8], in data set [9] and in [12] was more than 30 µM each time. In data set [4] (brain / plasma), this compound had a Kp of 1.4. Also, the Kp uu in [4] (brain / plasma, unbound) was 0.3. Also, the “Rat oral F (3 mg/kg)” value in [4] (oral 3 mg/kg) is given as more than 100%. For the same compound, the clearance in data set [4] (plasma, read-out: Rat CLp) turned out to be 4.3 mL/min/kg. Besides, the half-life in data set [4] (plasma, read-out: Rat Elim. t1/2 (converted)) is 186 min. For the same compound, the Vd in data set [4] (plasma, read-out: Rat Vss) came out at 0.7 L/kg. In [5], the “inhibition of each target in the LeadProfilingScreen” value is given as less than 50%.
